From ChEMBL document CHEMBL4513101, “Naegleria gruberi Pathogen Box compounds screening” (2021) come the findings set out here.

The source made the active and inactive calls. No stated cut-off is given here; in the data, active = inhibition of 80% or more and inactive = less.

The term inhibition denotes the relative decrease from the control value, in per cent.

The first assay relates to Naegleria gruberi. As to the kind of experiment: microbe, parasite or virus in culture. Format: functional. Conditions: NEG-M, CONC 10 uM.
Description: Growth inhibiting activity of Naegleria gruberi in vitro
Turning to `c1ccc(C[C@@H]2CN(c3nccc(Oc4ccc(-n5ccnc5)cc4)n3)CCN2)cc1`, the inhibition at 10 µM is listed as 26.4% (not active).
On the same count and under the same terms, next, `O=C1COCc2ccc(Br)cc2N1Cc1ccc(C(F)(F)F)cc1`: 26.7% (not active); `O=C1O[C@@H](COc2ccon2)CN1c1cc(F)c(C2=CCN(Cc3ccccc3)CC2)c(F)c1`: 4.4% (not active).
With `CC(C)(C)c1cc(C(=O)Nc2cccnc2)cc(C(=O)Nc2cccnc2)c1`, the inhibition at 10 µM was 28% (not active).
For `C[C@H]1c2cccc(O)c2C(=O)C2=C(O)[C@]3(O)C(=O)C(C(N)=O)=C(O)[C@@H](N(C)C)[C@@H]3[C@@H](O)[C@@H]21` [DOXYCYCLINE], the inhibition at 10 µM was 59.8% (not active).
Same read-out and setting: next, `CC(C)(C)C(=O)N(CCCCCCN1C[C@H](O)[C@@H](O)[C@H](O)[C@H]1CO)C1CCCCCC1`: 0.1% (not active); `CC1CS(=O)(=O)CCN1/N=C/c1ccc([N+](=O)[O-])o1` (stereo not drawn) [NIFURTIMOX]: 11.1% (not active); `Cc1nc(-c2ccccn2)nc(NCCc2ccc(S(C)(=O)=O)cc2)c1Cl`: 26.6% (not active).
For `COc1ccc(Cn2cnc3c(-c4ccco4)nc(Cl)nc32)cc1`, the inhibition at 10 µM is reported as 36.9% (not active).
In the case of `Cc1ccccc1C(=O)N1N=C(Nc2ccccc2)SC1(C)C`, the inhibition at 10 µM is given as 12.6% (not active).
Same read-out and setting: next, `Cc1ccc(C(=O)Nc2ccc(S(=O)(=O)O)c3cc(S(=O)(=O)O)cc(S(=O)(=O)O)c23)cc1NC(=O)c1cccc(NC(=O)Nc2cccc(C(=O)Nc3cc(C(=O)Nc4ccc(S(=O)(=O)O)c5cc(S(=O)(=O)O)cc(S(=O)(=O)O)c45)ccc3C)c2)c1` [SURAMIN]: 32% (not active); `CN1CCN(CCCOc2ncc(Nc3ncc(-c4ccc(C(F)(F)F)c(F)c4)nc3C(N)=O)cn2)CC1`: 12.9% (not active); `CCC(NC(=O)c1ccccc1NC(=O)c1ccc(C)cc1)C(=O)OC` (stereo not drawn): 4.8% (not active).
The same measure, in the same setting: next, `CC1CCCN(C(=O)C(C)Nc2cc(Cl)ccc2N2CCOCC2)C1` (stereo not drawn): 43.8% (not active).
Take `COC(=O)c1c(NC(=O)c2c(F)c(F)c(F)c(F)c2F)sc2c1CCCCC2`: the inhibition at 10 µM is on record as 30.9% (not active).
For the compound `COc1cccc(-n2nnnc2S(=O)(=O)Cc2ccccc2)c1`, the inhibition at 10 µM was 85.8% (active).
Same read-out and setting: next, `O=C(CCC1CCCCC1)Nc1cccc(-c2nnc(-c3ccco3)o2)c1`: 30% (not active).
For `COc1cccc(CC(=O)N2CCC(n3c(C)nc4ccc(F)cc43)CC2)c1`, the inhibition at 10 µM is reported as 19.3% (not active).
On the same count and under the same terms, next, `CCCCS(=O)(=O)Nc1ccc2cnn(C)c2c1`: 17.4% (not active); `CCc1ccc([C@@H]2C[C@H](C(F)(F)F)n3ncc(C(=O)NCc4ccc(OC)cc4)c3N2)cc1`: 29% (not active); `CC(C)C(NC(=O)Cc1cccc2ccccc12)C(=O)Nc1cccc(C#N)c1` (stereo not drawn): 37.5% (not active).
The same measure, in the same setting: next, `O=C(Nc1ccccc1)c1ccc(-c2cc3ccncc3cc2OC2CCNCC2)s1`: 12.6% (not active); `Cc1cc(C)n2nc(C(=O)Nc3cc(C(F)(F)F)ccc3N3CCOCC3)nc2n1`: 38% (not active); `Cc1cc(C)cc(COc2ccc3c(C)c(CCC(=O)O)c(=O)oc3c2C)c1`: 40.9% (not active).
Turning to `O=C(Nc1c(O)cccc1-c1nc2c(C(=O)O)cccc2o1)c1cc(-c2ccccc2)on1`, the inhibition at 10 µM was 18.4% (not active).
The same measure, in the same setting: next, `Cn1ncc2c(N3CCOCC3)nc(NCCc3c[nH]c4ccccc34)nc21` [TDR79432]: 45.9% (not active); `N#Cc1ccc(-c2cnc(N)c(-c3ccc(C(N)=O)cc3)n2)cc1`: 21.8% (not active).
Still for that read-out and setting: next, `O=C(Nc1ccc(C(F)(F)F)c(C(F)(F)F)c1)c1cc(Cl)ccc1O`: 98.5% (active); `CN1CCN(c2nccc3[nH]c(-c4cccc(F)c4)cc23)CC1`: 0% (not active); `CC(=O)Oc1ccccc1C(=O)Nc1ncc([N+](=O)[O-])s1` [NITAZOXANIDE]: 62.7% (not active).
As to `O=C(c1ccc(NCCO)cc1)C1C[C@H]1c1ccc(Cl)cc1` (stereo partly drawn), the inhibition at 10 µM is given as 28.7% (not active).
Regarding `CCn1ncc2c(NC3CCOCC3)c(CNC(=O)c3ccnn3C)c(C)nc21`, the inhibition at 10 µM was 0.8% (not active).
Same read-out and setting: next, `CCN(CC)S(=O)(=O)c1ccc(C(=O)Nc2cc(C)nn2-c2nc(C)c(C)c(=O)[nH]2)cc1`: 41.8% (not active).
Take `CC(C(=O)N1CCCC1)N1CCN(S(=O)(=O)c2ccc(C(C)(C)C)cc2)CC1` (stereo not drawn): the inhibition at 10 µM is 4.7% (not active).
The same measure, in the same setting: next, `CC(C)(C)C(O)C(Oc1ccc(-c2ccccc2)cc1)n1cncn1` (stereo not drawn) [BITERTANOL]: 81% (active); `Cc1ccc(NC(=O)c2cc(S(=O)(=O)NC(C)(C)C)ccc2C)nc1`: 34.7% (not active); `Cc1nn2c(O)c3c(nc2c1-c1ccc(F)cc1)CCCC3`: 30.1% (not active).
Same read-out and setting: next, `Nc1ccc(C(=O)Nc2ccc(-c3nc4ccccc4o3)cc2)cc1`: 6.1% (not active).
For the compound `O=C(Nc1nnc(-c2ccc(Cl)cc2)o1)c1cccc(C(F)(F)F)c1`, the inhibition at 10 µM was 19.7% (not active).
Consider `NC(=O)c1cc(-c2ccsc2)ccc1OCCOc1ccccc1`, for which the inhibition at 10 µM is reported as 43.7% (not active).
Regarding `c1ccc(Oc2ccc(-c3cc(CN4CCOCC4)[nH]n3)cc2)cc1`, the inhibition at 10 µM is 3.2% (not active).
On the same count and under the same terms, next, `Cc1cc2nc(NC(=O)C(C)(C)C)nc(Cl)c2n1Cc1ccc(Cl)cc1`: 43% (not active).
Take `CS(=O)(=O)c1ccccc1C(=O)N(Cc1ccccc1)c1ccccc1`: the inhibition at 10 µM was 31.8% (not active).
Same read-out and setting: next, `CNc1nnc(Sc2cnn(-c3ccccc3)c(=O)c2Cl)s1`: 50% (not active); `O=C(Nc1ccc(N2CCNCC2)nc1)c1oc(-c2ccccc2)nc1C(F)(F)F`: 15.4% (not active); `COc1cc(NC(C)CCCN)c2ncccc2c1` (stereo not drawn) [PRIMAQUINE]: 10.7% (not active).
For `Cc1cc(O)nc(-n2nc(C)cc2C)n1`, the inhibition at 10 µM was 3.8% (not active).
As to `COc1cccc2c(C)nc(N=C(N)N)nc12`, the inhibition at 10 µM was 24.2% (not active).
Same read-out and setting: next, `c1ccc(Oc2ccc(-c3cc(N4CCNCC4)[nH]n3)cc2)cc1`: 0% (not active); `Nc1ncc(Br)cc1-c1nc2cc(Cl)cnc2[nH]1`: 15.3% (not active); `COc1ccc(S(=O)(=O)Nc2ccc(CN3CCN(C(=O)c4cccc(C#N)c4)CC3)cc2)cc1`: 18.8% (not active).
`CC(=O)Nc1ccc(NC(=O)c2cc(-c3cc(Cl)ccc3O)n[nH]2)cc1`: the inhibition at 10 µM was 8.8% (not active).
Turning to `COc1cccc(NC(=O)c2c(NC(=O)c3cccnc3)sc3c2CCC3)c1`, the inhibition at 10 µM is on record as 62.6% (not active).
Turning to `COc1ccc(-c2cnc3ccc(NCc4ccc(S(N)(=O)=O)cc4)nn23)cn1`, the inhibition at 10 µM was 10.2% (not active).
The same measure, in the same setting: next, `COc1ccc(C(=N)N)cc1-c1cn(-c2ccc(C(=N)N)cc2)nn1`: 22.8% (not active).
With `CCOc1ccc(OCC(=O)Nc2cc(C)cc(C)c2)cc1`, the inhibition at 10 µM is on record as 0% (not active).
The same measure, in the same setting: next, `CC1COC(Cn2cncn2)(c2ccc(Oc3ccc(Cl)cc3)cc2Cl)O1` (stereo not drawn) [DIFENOCONAZOLE]: 73.3% (not active); `Cc1cc(Nc2ccc(C(F)(F)F)cc2)n2ccnc2n1`: 0% (not active).
As for `CC1CCCCN1C(=O)NCCc1coc(-c2ccc(F)cc2)n1` (stereo not drawn), the inhibition at 10 µM is 42.6% (not active).
The same measure, in the same setting: next, `Nc1cccnc1Nc1ccc(Cl)cc1`: 4.1% (not active).
`CCC(=O)Nc1ccccc1C(=O)Nc1ccccn1`: the inhibition at 10 µM is on record as 35.7% (not active).
As for `Cc1ccc(S(=O)(=O)n2cc(-c3ccnc(N)c3)c3cc(Br)cnc32)cc1`, the inhibition at 10 µM is 53.9% (not active).

For another assay, the system named is Naegleria gruberi.
Assay: not given
The settings on record: NEG-M, at 10 µM.
With MMV688978, the inhibition was 60.5%.
